Several values for one entry are separate records, joined by “and”; a condition that tells them apart may be missing. Equal values may be shown once.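 Following 48 hours of exposure in 96-well plates, responses at five concentrations were used to interpolate endpoints linearly. GI50 marks 50% less growth. TGI marks complete inhibition of growth.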
How the values were obtained:
Assay in all cases: DTP human tumour cell line panel, 48 h
HCC-2998 colon = test system: HCC-2998 colon
U251 CNS = test system: U251 CNS
SNB-75 CNS = test system: SNB-75 CNS
SNB-19 CNS = test system: SNB-19 CNS
NCI-H460 lung = test system: NCI-H460 lung
KM12 colon = test system: KM12 colon
A498 renal = test system: A498 renal
SK-MEL-28 melanoma = test system: SK-MEL-28 melanoma
OVCAR-4 ovarian = test system: OVCAR-4 ovarian
SK-MEL-2 melanoma = test system: SK-MEL-2 melanoma

Structure (SMILES)	TGI (HCC-2998 colon) [µM]	TGI (U251 CNS) [µM]	TGI (SNB-75 CNS) [µM]	TGI (SNB-19 CNS) [µM]	TGI (NCI-H460 lung) [µM]	TGI (KM12 colon) [µM]	TGI (A498 renal) [µM]	TGI (SK-MEL-28 melanoma) [µM]	TGI (OVCAR-4 ovarian) [µM]	TGI (SK-MEL-2 melanoma) [µM]	GI50 (HCC-2998 colon)	GI50 (U251 CNS)	GI50 (SNB-75 CNS)	GI50 (SNB-19 CNS)	GI50 (NCI-H460 lung)	GI50 (KM12 colon)	GI50 (A498 renal)	GI50 (SK-MEL-28 melanoma)	GI50 (OVCAR-4 ovarian)	GI50 (SK-MEL-2 melanoma)
O=C1CCCCCCCCCCC1CN1CCCCC1 (stereo not given)	> 100	> 100	> 100	> 100	> 100	> 100	> 100	> 100	> 100	> 100	–	–	–	–	–	–	–	–	–	–
CN/N=C(\C)C(CN(C)C)C(c1ccccc1)c1c(O)c2ccccc2oc1=O (stereo not given)	> 100	> 100	> 100	> 100	> 100	> 100	> 100	> 100	> 100	> 100	–	–	–	–	–	–	–	–	–	–
CC(C)(C)C(=O)OC12/C(=N/O)CCCCCC1c1ccccc12 (stereo not given)	> 100	33.1	27.8	31.1	32.3	30.1	30.5	32.8	33	37.3	–	–	–	–	–	–	–	–	–	–
CCCC(CCC)C(=O)OCC1(CO)C/C(=C\c2ccc(F)cc2)C(=O)O1 (stereo not given)	19.8	23.4	22.8	32.2	19.6	27.5	12.4	28	28.4	34.1	6.73 µM	8.07 µM	7.99 µM	18.2 µM	1.94 µM	13.9 µM	1.46 µM	14.7 µM	13.9 µM	17.2 µM
CO[C@H](C(=O)[C@@H](O)[C@@H](C)O)[C@@H]1Cc2cc3cc(OC4CC(OC5CC(O)C(O)C(C)O5)C(O)C(C)O4)c(C)c(O)c3c(O)c2C(=O)[C@H]1OC1CC(OC2CC(OC3CC(C)(O)C(O)C(C)O3)C(O)C(C)O2)C(O)C(C)O1 (stereo not given in full)	–	–	–	–	–	–	–	–	–	–	0.0395 µg/mL and 0.0243 µg/mL	0.016 µg/mL and 0.0132 µg/mL	0.0141 µg/mL and 0.0224 µg/mL	0.0238 µg/mL and 0.0179 µg/mL	0.0183 µg/mL and 0.015 µg/mL	0.0197 µg/mL and 0.0207 µg/mL	0.0084 µg/mL and 0.0164 µg/mL	0.02 µg/mL and 0.0182 µg/mL	0.0389 µg/mL and 0.0236 µg/mL	0.0152 µg/mL and 0.0126 µg/mL
CC/C(CC(=O)CCC(=O)Nc1ccccc1[N+](=O)[O-])=N/NC(=O)C[n+]1ccccc1	> 100	> 100	> 100	> 100	> 100	> 100	> 100	> 100	> 100	> 100	–	–	–	–	–	–	–	–	–	–
O=C(O)C(Cl)(c1ccccc1)c1ccccc1	> 100	> 100	> 100	> 100	> 100	> 100	> 100	> 100	> 100	> 100	–	–	–	–	–	–	–	–	–	–
O=[N+]([O-])CCc1cccc([N+](=O)[O-])c1	> 100	> 100	> 100	> 100	> 100	> 100	> 100	> 100	> 100	> 100	–	–	–	–	–	–	–	–	–	–
Cc1cc(CC(C)CC(C)(C)C)n(O)c(=O)c1 (stereo not given) (tested in a mixture with another compound)	17.7	13.9	61.2	> 100	10.9	21.3	10.3	> 63.2	> 84.4	> 100	2.6 µM	0.4 µM	1.61 µM	0.519 µM	0.331 µM	0.602 µM	0.944 µM	0.548 µM	0.358 µM	0.766 µM
Cc1cc(Cl)ccc1NC(=O)C(=O)C(C(=O)c1ccc2ccccc2c1)C1OC(=O)c2ccccc21 (stereo not given)	22.2	21.2	49.2	18.3	60.8	52.3	25.6	54.5	25.5	27.3	–	–	–	–	–	–	–	–	–	–
COc1cccc(C2c3cc4c(cc3OC(N3CCCC3)C2C)OCO4)c1O (stereo not given)	46.9	25.8	8.29	> 100	32.4	19.8	33.7	81.1	> 94.2	30.4	–	–	–	–	–	–	–	–	–	–
CN(C)c1nc(=Nc2cccc(Cl)c2)ss1	47.9	24.1	66.3	> 100	46.3	43.7	93	25.8	29.8	42.1	–	–	–	–	–	–	–	–	–	–
O=C(/C=C/c1ccccc1)n1c(-c2ccc(Cl)cc2)nc2ccccc21	3.45	3.22	3.77	12.8	3.5	2.93	2.56	3.22	16.7	4.35	1.8 µM	1.6 µM	1.44 µM	3.13 µM	1.53 µM	1.44 µM	1.17 µM	1.49 µM	3.01 µM	2.1 µM
CC(C)(C)[Si](C)(C)OC1[C@@H](O[Si](C)(C)C(C)(C)C)[C@@H](CNC(=O)NC(=O)CCl)O[C@H]1n1cnc2c(NC(=O)Nc3ccccc3)ncnc21 (stereo not given in full)	2.06	1.21	1.28	3.96	1.74	3.64	2.11	1.69	1.57	2.01	0.967 µM	0.51 µM	0.536 µM	1.11 µM	0.859 µM	1.04 µM	0.902 µM	0.916 µM	0.7 µM	1.13 µM
Cc1nc(N2CCC3(CC2)CO[C@@H](C)[C@H]3N)c(CO)nc1Sc1ccnc(N)c1Cl	> 100	> 100	> 100	> 100	> 100	> 100	> 100	> 100	> 100	> 100	> 100 µM	3.92 µM	0.518 µM	14.8 µM	> 100 µM	2.21 µM	0.657 µM	> 100 µM	22.4 µM	> 100 µM
COc1ccc(C2SCC(=O)N2NC(=O)c2ccc(NC(C)=O)cc2)cc1 (stereo not given)	> 100	> 100	> 100	> 100	> 100	> 100	> 100	> 100	> 100	> 100	–	–	–	–	–	–	–	–	–	–
O=Cc1ccc(-c2ccc(-c3nc4ccccc4o3)cc2)o1	76.4	88.1	> 100	> 100	> 100	53.4	> 100	> 100	> 100	> 100	28.6 µM	25.4 µM	81.9 µM	> 100 µM	39.6 µM	21 µM	21.2 µM	64.5 µM	> 100 µM	66.4 µM

— PubChem BioAssay (NCI)
